The record followed here is ChEMBL document CHEMBL4219097, “Synthesis of 3-aza[4.4.3]propellanes with high σ1 receptor affinity” (Bioorg Med Chem, 2018).

The structures appear in SMILES notation. Where only a bound is given, the exact number is not on record here.

The target in test [1] is Sigma non-opioid intracellular receptor 1 (Cavia porcellus, UniProt Q60492). The experiment in a line: Displacement of [3H]-(+)-pentazocine from sigma1 receptor in guinea pig brain cortex membranes measured after 120 mins by scintillation counting method. The format is cell membranes.
The nature of test [2]: Selectivity ratio of Ki for displacement of [3H]DTG from sigma 2 receptor in rat liver membranes to Ki for displacement of [3H]-(+)-pentazocine from sigma1 receptor in guinea pig brain cortex membranes. The format is cell membranes.
In test [3] the target is T1, Sigma intracellular receptor 2 (Rattus norvegicus, UniProt Q5U3Y7).
T1 sequence (Q5U3Y7 whole entry): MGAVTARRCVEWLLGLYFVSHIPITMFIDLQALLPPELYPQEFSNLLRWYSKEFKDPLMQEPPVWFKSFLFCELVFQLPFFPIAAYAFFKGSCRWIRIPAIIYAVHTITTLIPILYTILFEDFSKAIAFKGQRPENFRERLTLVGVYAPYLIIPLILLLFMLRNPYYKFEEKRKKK
The test is described as follows: Displacement of [3H]DTG from sigma 2 receptor in rat liver membranes measured after 120 mins by scintillation counting method. The format is cell membranes, Membrane.

Test [4] concerns the target T2, Sigma intracellular receptor 2 (Rattus norvegicus) (UniProt Q5U3Y7).
T2 sequence (whole entry): T1 sequence (Q5U3Y7 whole entry)
The test is described as follows: Displacement of [3H]DTG from sigma 2 receptor in rat liver membranes at 1 uM measured after 120 mins by scintillation counting method. The format is cell membranes. To be noted: Membrane.

Test [5] addresses Sigma non-opioid intracellular receptor 1 (Cavia porcellus) (UniProt Q60492). The experiment in a line: Displacement of [3H]-(+)-pentazocine from sigma1 receptor in guinea pig brain cortex membranes at 1 uM measured after 120 mins by scintillation counting method. In kind it is cell membranes.

Sigma non-opioid intracellular receptor 1, sequence (Q60492 whole entry): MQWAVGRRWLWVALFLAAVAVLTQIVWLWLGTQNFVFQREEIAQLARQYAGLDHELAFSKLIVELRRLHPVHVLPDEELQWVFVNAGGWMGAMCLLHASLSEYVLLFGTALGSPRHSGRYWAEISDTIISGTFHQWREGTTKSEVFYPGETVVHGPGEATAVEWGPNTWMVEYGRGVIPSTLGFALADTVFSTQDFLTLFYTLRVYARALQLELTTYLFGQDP
Sigma non-opioid intracellular receptor 1 (Cavia porcellus), sequence (Q60492 whole entry): as above

On to `c1ccc(CN2CCC34CCCCC3(CCC4)C2)cc1` (racemic), for which the Ki was found to be 17 nM in test [1] and 190 nM in test [3]. In addition, the Ratio Ki in test [2] was 11.

For the compound `OC1CC23CCCCC2(C1)CN(Cc1ccccc1)CC3` (racemic; anti) [listing 1 of 2 here], the figures for the inhibition constant Ki in test [1] and in test [3] were 122 nM and 2040 nM, respectively.

In test [1], `COc1ccc(C)cc1NC(=O)OC1CC23CCCCC2(C1)CN(Cc1ccccc1)CC3` (racemic; anti) [listing 1 of 2 here] returned a Ki of 82 nM.

Regarding `COc1ccc(C)cc1NC(=O)OC1CC23CCCCC2(C1)CN(Cc1ccccc1)CC3` (racemic; anti) [listing 2 of 2 here], the inhibition in test [4] amounted to 8%. In test [2], the Ratio Ki is more than 12.

As to `OC1CC23CCCCC2(C1)CN(Cc1ccccc1)CC3` (racemic; anti) [listing 2 of 2 here], the Ratio Ki in test [2] stood at 17.

`OC1CC23CCCCC2(C1)CN(Cc1ccccc1)CC3` (racemic; syn) [listing 1 of 2 here]: the Ki in test [1] is 336 nM; in test [3] it was 690 nM.

For `COc1ccc(C)cc1NC(=O)OC1CC23CCCCC2(C1)CN(Cc1ccccc1)CC3` (racemic; syn), the inhibition is 0% in test [4] and 12% in test [5].

In the case of `OC1CC23CCCCC2(C1)CN(Cc1ccccc1)CC3` (racemic; syn) [listing 2 of 2 here], the Ratio Ki in test [2] was found to be 2.
